Structures can show the parent of a compound that is named as a salt.
system: THP-1 cells; experiment: THP-1 Soluble Protein Assay (LPS-stimulated; ELISA of TNF-a, TNF-R p75/80, TNF-R p55/60, IL-8); format: cell-based, human; details: Homo sapiens, THP-1, 3 µM; read-out: THP % Inhibition @ 3µM

First: CC#CCOc1ccc(S(=O)(=O)N2[C@@H](C(=O)NO)C(C)(C)SC[C@@H]2C)cc1 [Example 270, (3S,5S)-4-{[4-(2-Butynyloxy)phenyl]sulfonyl}-N-hydroxy-2,2,5-trimethyl-3-thiomorpholinecarboxamide]
Second: CC#CCOc1ccc(S(=O)(=O)N2C[C@H](CC(N)=O)SC(C)(C)[C@@H]2C(=O)NO)cc1 [Example 280, (3S,6S)-6-(2-Amino-2-oxoethyl)-4-{[4-(2-butynyloxy)phenyl]sulfonyl}-N-hydroxy-2,2-dimethyl-3-thiomorpholinecarboxamide]
The inhibition at 3 µM of the first is lower: 62% for the first, 91% for the second.

CC#CCOc1ccc(S(=O)(=O)N2C[C@H](CC(=O)N3CCN(C)CC3)SC(C)(C)[C@@H]2C(=O)NO)cc1 [Example 283, (3S,6S)-4-{[4-(2-Butynyloxy)phenyl]sulfonyl}-N-hydroxy-2,2-dimethyl-6-[2-(4-methyl-1-piperazinyl)-2-oxoethyl]-3-thiomorpholinecarboxamide hydrochloride] was tested, and the inhibition at 3 µM was 90%.

same assay, conditions: Homo sapiens, THP-1, read-out: THP % inhibition @ 3 µM, 3 µM

Going from CC1(C)SCCN(S(=O)(=O)c2ccc(OCC#CCN)cc2)C1C(=O)NO (stereo not shown) [Example 265, 4-({4-[(4-Amino-2-butynyl)oxy]phenyl}sulfonyl)-N-hydroxy-2,2-dimethyl-3-thiomorpholine carboxamide] to CC1(C)SCCN(S(=O)(=O)c2ccc(OCC#CCCCO)cc2)C1C(=O)NO (stereo not shown) [Example 249, N-Hydroxy-4-({4-[(6-hydroxy-2-hexynyl)oxy]phenyl}sulfonyl)-2,2-dimethyl-3-thiomorpholine carboxamide], the inhibition at 3 µM rises from 40% to 51%.

Going from CC#CCOc1ccc(S(=O)(=O)N(C)C(C(=O)NO)c2ccc(OCCCN)cc2)cc1 (stereo not shown) [Example 188, 2-[4-(3-Aminopropoxy)phenyl]-2-[{[4-(2-butynyloxy)phenyl]sulfonyl}(methyl)amino]-N-hydroxyacetamide] to CC#CCOc1ccc(S(=O)(=O)N(C)C(C(=O)NO)c2ccc(OCCCNC(=O)OCC)cc2)cc1 (stereo not shown) [Example 193, Ethyl 3-{4-[1-[{[4-(2-butynyloxy)phenyl]sulfonyl}(methyl)amino]-2-(hydroxyamino)-2-oxoethyl]phenoxy}propylcarbamate], the inhibition at 3 µM falls from 94% to 91%.

First: CC#CCOc1ccc(S(=O)(=O)N(C)C(C(=O)NO)c2ccc(OCCN(C)C(=O)OC(C)(C)C)cc2)cc1 (stereo not shown) [Example 191]
Second: CC#CCOc1ccc(S(=O)(=O)N(C)C(C(=O)NO)c2ccc(OCCN3CCN(C(=O)OC(C)(C)C)CC3)cc2)cc1 (stereo not shown) [Example 185, tert-butyl 4-(2-{4-[1-[{[4-(2-butynyloxy)phenyl]sulfonyl}(methyl)amino]-2-(hydroxyamino)-2-oxoethyl]phenoxy}ethyl)-1-piperazinecarboxylate]
The inhibition at 3 µM of the first is higher: 90% for the first, 89% for the second.

First: CC#CCOc1ccc(S(=O)(=O)N(C)C(C(=O)NO)C(C)(C)SCc2ccccc2)cc1 (stereo not shown) [Example 153, 2-[(4-But-2-ynyloxy-benenesulfonyl)-methyl-amino]-N-hydroxy-3-methyl-3-benzylsulfanyl-butyramide]
Second: CC#CCOc1ccc(S(=O)(=O)N(C)C(C(=O)NO)C(C)(C)SCCN2CCOCC2)cc1 (stereo not shown) [Example 140, 2-({[4-(2-Butynyloxy)phenyl]sulfonyl)(methyl)amino]-N-hydroxy-3 methyl-3-[(2(4-morpholinylethyl)sulfanyl]-butanamide hydrochloride]
The inhibition at 3 µM of the first is lower: 46% for the first, 80% for the second.

First: CC#CCOc1ccc(S(=O)(=O)N2CCN(C(=O)OC(C)(C)C)CC2C(=O)NO)cc1 (stereo not shown) [Example 58, 4-(4-But-2-ynyloxy-benzenesulfonyl)-3-hydroxycarbamoyl-piperazine-1-carboxylic acid tert-butyl ester]
Second: CC#CCOc1ccc(S(=O)(=O)N2CCN(C(=O)CC)CC2C(=O)NO)cc1 (stereo not shown) [Example 225, 1-(4-But-2-ynyloxy-benzenesulfonyl)-4-propionyl-piperazine-2-carboxylic acid hydroxyamide]
The inhibition at 3 µM of the first is higher: 79% for the first, 76% for the second.

Going from CC#CCOc1ccc(S(=O)(=O)N(Cc2cccnc2)[C@@H](C(=O)NO)C2CCCCC2)cc1 [Example 116, 2-[(4-But-2-ynyloay-benzenesulfonyl)-pyridin-3-ylmethyl-amino]-2-cyclohexyl-N-hydroxy-acetamide] to CC#CCOc1ccc(S(=O)(=O)N(C)[C@@H](C(=O)NO)c2ccc(O[C@H]3CCNC3)cc2)cc1 [Example 190, (2R)-2-[{[4-(2-Butynyloxy)phenyl]sulfonyl}(methyl)amino]-N-hydroxy-2-{4-[(3S)-pyrrolidinyloxy]phenyl}ethanamide], the inhibition at 3 µM rises from 75% to 94%.

Compared with CC1(C)SCCN(S(=O)(=O)c2ccc(OCC#CCCOC3CCCCO3)cc2)C1C(=O)NO (stereo not shown) [Example 243, N-Hydroxy-2,2-dimethyl-4-[(4-{[5-(tetrahydro-2H-pyran-2-yloxy)-2-pentynyl]oxy}phenyl)sulfonyl]-3-thiomorpholine carboxamide], CC1(C)SCCN(S(=O)(=O)c2ccc(OCC#CCCCOC3CCCCO3)cc2)C1C(=O)NO (stereo not shown) [Example 248, N-Hydroxy-2,2-dimethyl-4-[(4-{[6-(tetrahydro-2H-pyran-2-yloxy)-2-hexynyl]oxy}phenyl)sulfonyl]-3-thiomorpholine carboxamide] is lower in inhibition at 3 µM: 52% for the first, 21% for the second.

First: CC#CCOc1ccc(S(=O)(=O)N(C)C(C(=O)NO)C(C)(C)SCCCN2CCN(C)CC2)cc1 (stereo not shown) [Example 147, 2-({[4-(2-Butynyloxy)phenyl]sulfonyl)(methyl)amino]-N-hydroxy-3-methyl-3-{[2(4-methyl-1-ethyl-1-piperazinyl)propyl]sulfanyl}butanamide]
Second: CC#CCOc1ccc(S(=O)(=O)N(C)C(C(=O)NO)C(C)(C)SCCCN2CCOCC2)cc1 (stereo not shown) [Example 146]
The inhibition at 3 µM of the first is higher: 89% for the first, 84% for the second.

Compared with CC(=O)OCCCCC#CCOc1ccc(S(=O)(=O)N2CCSC(C)(C)[C@@H]2C(=O)NO)cc1 [Example 268, 7-[4-({(3S)-3-[(Hydroxyamino)carbonyl]-2,2-dimethylthiomorpholinyl}sulfonyl)phenoxy]-5-heptynyl acetate], CC(C)(C)OC(=O)NCCCC#CCOc1ccc(S(=O)(=O)N2CCSC(C)(C)[C@@H]2C(=O)NO)cc1 [Example 250, tert-Butyl 6-[4-({(3S)-3-[(hydroxyamino)carbonyl]-2,2-dimethylthiomorpholinyl}sulfonyl)phenoxy]-4-hexynylcarbamate] is lower in inhibition at 3 µM: 76% for the first, 27% for the second.

Compared with CC#CCOc1ccc(S(=O)(=O)N(CCCCN(CC)CC)C(C(=O)NO)C(C)C)cc1 (stereo not shown) [Example 121, 2-{{[4-(2-Butynyloxy)phenyl]sulfonyl}[4-(diethylamino)butyl]amino}-N-hydroxy-3-methylbutanamide], C#CCN(C(C(=O)NO)C(C)C)S(=O)(=O)c1ccc(OCC#CC)cc1 (stereo not shown) [Example 109, 2-[{[4-(2-Butynyloxy)phenyl]sulfonyl}(2-propynyl)amino]-N-hydroxy-3-methylbutanamide] is higher in inhibition at 3 µM: 65% for the first, 85% for the second.

Compared with CC#CCOc1ccc(S(=O)(=O)N(CCN2CCOCC2)C(C(=O)NO)C(C)C)cc1 (stereo not shown) [Example 123, 2-[[[4-(2-Butynyloxy)phenyl]sulfonyl][2-(4-morpholinyl)ethyl]amino]-N-hydroxy-3-methylbutanamide], CC#CCOc1ccc(S(=O)(=O)N(CCCN2CCOCC2)C(C(=O)NO)C(C)C)cc1 (stereo not shown) [Example 119, 2-{{[4-(2-Butynyloxy)phenyl]sulfonyl}[3-(4-morpholinyl)propyl]amino}-N-hydroxy-3-methylbutanamide] is higher in inhibition at 3 µM: 35% for the first, 61% for the second.

First: CC#CCOc1ccc(S(=O)(=O)N(CCN2CCOCC2)CC(=O)NO)cc1 [Example 124, 2-[{[4-(But-2-ynyloxy)phenyl]sulfonyl}(2-morpholin-4-ylethyl)amino]-N-hydroxyacetamide hydrochloride]
Second: CC#CCOc1ccc(S(=O)(=O)N2CCNCC2C(=O)NO)cc1 (stereo not shown) [Example 214, 1-(4-But-2-ynyloxy-benzenesulfonyl)-piperazine-2-carboxylic acidhydroxyamide]
The inhibition at 3 µM of the first is lower: 24% for the first, 71% for the second.

Compared with CC#CCOc1ccc(S(=O)(=O)N2Cc3ccccc3CC2C(=O)NO)cc1 (stereo not shown) [Example 41, 2-(4-But-2-ynyloxy-benzenesulfonyl)-1,2,3,4-tetrahydro-isoquinoline-3-carboxylic acid hydroxyamide], CC#CCOc1ccc(S(=O)(=O)N2CCN(Cc3ccc(Br)cc3)CC2C(=O)NO)cc1 (stereo not shown) [Example 233, 4-(4-Bromo-benzyl)-1-(4-but-2-ynyloxy-benzenesulfonyl)-piperazine-2-carboxylic acid hydroxyamide] is lower in inhibition at 3 µM: 93% for the first, 33% for the second.

Going from CC(C)(C)OC(=O)NCCC#CCOc1ccc(S(=O)(=O)N2CCSC(C)(C)C2C(=O)NO)cc1 (stereo not shown) [Example 245, tert-Butyl 5-[4-({3-[(hydroxyamino)carbonyl]-2,2-dimethyl-4-thiomorpholinyl}sulfonyl)phenoxy]-3-pentynylcarbamate] to CC#CCOc1ccc(S(=O)(=O)N2CCN(C(=O)C(C)(CO)CO)CC2C(=O)NO)cc1 (stereo not shown) [Example 232, 1-{[4-(2-Butynyloxy)phenyl]sulfonyl}-N-hydroxy-4-[3-hydroxy-2-(hydroxymethyl)-2-methylpropanoyl]-2-piperazinecarboxamide], the inhibition at 3 µM rises from 37% to 72%.

Going from CC#CCOc1ccc(S(=O)(=O)N(C)[C@@H](C(=O)NO)c2ccc(O[C@H]3CCN(C(=O)OC(C)(C)C)C3)cc2)cc1 [Example 189, tert-Butyl (3S)-3-{4-[(1R)-1-[{[4-(2-butynyloxy)phenyl]sulfonyl}(methyl)amino]-2-(hydroxyamino)-2-oxoethyl]phenoxy}-1-pyrrolidinecarboxylate] to CC#CCOc1ccc(S(=O)(=O)NC(C(=O)NO)c2ccc(OCCN3CCCC3)cc2)cc1 (stereo not shown) [Example 205, 2-({[4-(2-Butynyloxy)phenyl]sulfonyl}amino)-N-hydroxy-2-{4-[2-(1-pyrrolidinyl)ethoxy]phenyl}acetamide], the inhibition at 3 µM falls from 92% to 66%.

Work on CC#CCOc1ccc(S(=O)(=O)N2CCSC3(CCN(Cc4ccccc4)CC3)C2C(=O)NO)cc1 (stereo not shown) [Example 241, 9-Benzyl-4-{[4-(2-butynyloxy)phenyl]sulfonyl}-N-hydroxy-1-thia-4,9-diazaspiro[5.5]undecane-5-carboxamide] yielded an inhibition at 3 µM of 94%.

Source: EP1144368B1, “ACETYLENIC ALPHA-AMINO ACID-BASED SULFONAMIDE HYDROXAMIC ACID TACE INHIBITORS” (priority 1999, dated 2000)
